From patent US20130236553A1, “Compositions and Methods for the Delivery of Therapeutics” (Board of Regents of the University of Nebraska, priority 2010, published 2013)

Tests used:
[1] = cited from earlier work
[2] = cited from earlier work; remark: listed apart in the source
[3] = Plasma concentration after low dose SC injection of nanoparticle or free drug; type: in vivo, Mice; settings: 10 mg/kg SC; for concentration at 0.25 hr / concentration at 1 hr / concentration at 3 hr / concentration at 6 hr / concentration at 10 hr / concentration at 24 hr / concentration at 48 hr / concentration at 96 hr / concentration at 168 hr / concentration at 336 hr: mouse, plasma, subcutaneous
Experimental: Mice were also administered nanoparticles or free drug at only 10 mg/kg by SC injection.

[4] = tested on: a variety of HIV strains and host cell types; settings: read-out: EC50 levels for anti-HIV activity; cited from earlier work
[5] = tested on: HIVADA; experiment: Antiretroviral activities of RTV (p24 staining, RT activity) in HIVADA infected MDM; type: cell-based, HIV-1; settings: 12 hours treatment, HIV challenge day 1, read 10 days after infection
Experimental: Drug-treated MDMs were infected with HIVADA at a multiplicity of infection of 0.01 infectious viral particles/cell (Gendelman et al. (1988) J. Exp. Med., 167:1428-1441) on day 1 after RTV-NP treatment. Following viral infection, cells were cultured for 10 days with half media exchanges every other day. Media samples were collected 10 days after infection for measurement of progeny virion production as assayed by reverse transcriptase (RT) activity (Kalter et al. (1991) J. Immunol., 146:3396-3404). Parallel analyses for expression of HIV p24 antigen in infected cells were performed by immunostaining using p24 mouse monoclonal Ab (Dako [CA, USA]) on the same day as media sampling.
In a 96-well plate, media samples (10 μl) were mixed with 10 μl of a solution containing 100 mM Tris-HCl (pH 7.9), 300 mM KCl, 10 mM dithiothreitol, 0.1% nonyl phenoxylpolyethoxylethanol-40 (NP-40) and water. […] Following incubation, 50 μl of cold 10% TCA was added to each well; the wells were harvested onto glass fiber filters, and the filters were assessed for tritiated thymidine triphosphate incorporation by β-scintillation spectroscopy using a TopCount NX™ (PerkinElmer Inc. [MA, USA]) (Kalter et al. (1991) J. Immunol., 146:3396-3404). […]

| SMILES | therapeutic human plasma levels [1] [µg/mL] | minimum human therapeutic serum level ([1]; human serum) [ng/mL] | solubility of free-base drug [2] [µg/mL] | concentration at 0.25 hr [3] [ng/mL] | concentration at 1 hr [3] [ng/mL] | concentration at 3 hr [3] [ng/mL] | concentration at 6 hr [3] [ng/mL] | concentration at 10 hr [3] [ng/mL] | concentration at 24 hr [3] [ng/mL] | concentration at 48 hr [3] [ng/mL] | concentration at 96 hr [3] [ng/mL] | concentration at 168 hr [3] [ng/mL] | concentration at 336 hr ([3]; 336 hr) [ng/mL] | EC50 [4] [nM] | Plasma concentration, 336 hr ([3]; 336 hr) | protection against HIV infection (p24 staining, multinucleated giant cells) [5] |
| --- | --- | --- | --- | --- | --- | --- | --- | --- | --- | --- | --- | --- | --- | --- | --- | --- |
| COC(=O)N[C@H](C(=O)N[C@@H](Cc1ccccc1)[C@@H](O)CN(Cc1ccc(-c2ccccn2)cc1)NC(=O)[C@@H](NC(=O)OC)C(C)(C)C)C(C)(C)C [ATV, atazanavir] | 0.3 to 2.2 | 150 | 4000 to 5000 | 1150 | 804 | 2060 | 2100 | 639 | 9.85 | 4.38 | 4.3 | 1.74 | 0 | 2 to 5 | – | – |
| O=C1Nc2ccc(Cl)cc2[C@@](C#CC2CC2)(C(F)(F)F)O1 [EFV, efavirenz] | 1.8 to 4.1 | – | 9 | 301 | 124 | 155 | 213 | 40 | 7.1 | 2.17 | 2.99 | 2.57 | – | 1.7 to 25 | <LLOQ | – |
| CC(C)(C)NC(=O)[C@@H]1CN(Cc2cccnc2)CCN1C[C@@H](O)C[C@@H](Cc1ccccc1)C(=O)N[C@H]1c2ccccc2C[C@H]1O [IDV, indinavir] | – | – | – | – | – | – | – | – | – | – | – | – | – | 5 to 29 | – | – |
| CC(C)c1nc(CN(C)C(=O)N[C@H](C(=O)N[C@@H](Cc2ccccc2)C[C@H](O)[C@H](Cc2ccccc2)NC(=O)OCc2cncs2)C(C)C)cs1 [RTV, ritonavir] | 3.5 to 9.6 | – | – | 1080 | 492 | 710 | 551 | 69.1 | 5.91 | 2.36 | 4.94 | 2.21 | 0 | 35 to 200 | – | no protection against infection |
